Solubility data for 12 molecules are collected here from the OPERA property sets (Mansouri et al. 2018).

Values after ≈ are worked out from the molar mass of the structure shown.

The conditions of the data set: 25 °C.
A word on the solubility: it is how much of the substance goes into solution per volume. A higher solubility goes with a readily soluble substance. `CC(=O)OCCBr` yielded a solubility of 212000 µM (≈ 35400 µg/mL).

In turn, `Cc1ccc(C)c(O)c1C` showed a solubility of 11600 µM (≈ 1580 µg/mL).

Take `CCCCCCCCc1ccccc1`: the solubility turned out to be 0.347 µM (≈ 0.066 µg/mL).

`Fc1cccc2ccccc12` yielded a solubility of 353 µM (≈ 51.5 µg/mL).

Molecule `Fc1ccc(CCl)cc1` had a solubility of 2860 µM (≈ 413 µg/mL).

`CCCCCCCCC(=O)OC` yielded a solubility of 133 µM (≈ 22.9 µg/mL).

As for `CCCCCCCC(C)=O`, the solubility turned out to be 2610 µM (≈ 371 µg/mL).

For the molecule `Cc1c(C)c(C)c(C)c(C)c1C`, the solubility was found to be 1.45 µM (≈ 0.235 µg/mL).

For `CC(Br)CCl` (configuration not stated), the solubility was found to be 14200 µM (≈ 2240 µg/mL).

Molecule `CCCCCCCCC(C)=O` came in with a solubility of 491 µM (≈ 76.8 µg/mL).

`CCCCCCCc1ccccc1` gave a solubility of 2.54 µM (≈ 0.447 µg/mL).

In turn, `Clc1cccc2ccccc12` returned a solubility of 107 µM (≈ 17.4 µg/mL).
